# How the values were obtained:
# Type in all cases: binding
# [1] = target: T1, SW480 colon carcinoma cells lysate proteins (Homo sapiens, UniProt P68104); details: PreyGene EEF1A1; SW480 cells
# T1 sequence (P68104 1-462): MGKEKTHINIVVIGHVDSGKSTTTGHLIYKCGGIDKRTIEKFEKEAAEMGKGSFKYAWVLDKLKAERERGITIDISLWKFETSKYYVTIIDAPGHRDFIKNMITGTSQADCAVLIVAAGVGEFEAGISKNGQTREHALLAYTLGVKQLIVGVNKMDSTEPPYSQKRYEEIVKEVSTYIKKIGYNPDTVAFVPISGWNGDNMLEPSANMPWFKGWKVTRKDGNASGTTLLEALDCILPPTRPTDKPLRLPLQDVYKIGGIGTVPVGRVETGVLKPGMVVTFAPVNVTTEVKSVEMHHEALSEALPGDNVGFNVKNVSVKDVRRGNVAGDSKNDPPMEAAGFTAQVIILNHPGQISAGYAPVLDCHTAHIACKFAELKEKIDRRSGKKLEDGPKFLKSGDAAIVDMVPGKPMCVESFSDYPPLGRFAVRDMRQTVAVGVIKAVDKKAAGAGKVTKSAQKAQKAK
# [2] = target: SW480 colon carcinoma cells lysate proteins (Homo sapiens, UniProt O43399); details: PreyGene TPD52L2
# Sequence of SW480 colon carcinoma cells lysate proteins (Homo sapiens, UniProt O43399) (O43399 whole entry): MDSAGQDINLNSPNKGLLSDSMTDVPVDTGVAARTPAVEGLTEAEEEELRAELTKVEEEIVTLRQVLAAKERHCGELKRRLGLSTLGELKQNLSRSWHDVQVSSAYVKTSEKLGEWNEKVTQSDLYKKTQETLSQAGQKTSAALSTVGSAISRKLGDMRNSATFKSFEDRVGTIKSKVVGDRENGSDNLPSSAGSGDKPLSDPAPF
# [3] = target: SW480 colon carcinoma cells lysate proteins (Homo sapiens, UniProt P22626); details: PreyGene HNRNPA2B1
# Sequence of SW480 colon carcinoma cells lysate proteins (Homo sapiens, UniProt P22626) (P22626 whole entry): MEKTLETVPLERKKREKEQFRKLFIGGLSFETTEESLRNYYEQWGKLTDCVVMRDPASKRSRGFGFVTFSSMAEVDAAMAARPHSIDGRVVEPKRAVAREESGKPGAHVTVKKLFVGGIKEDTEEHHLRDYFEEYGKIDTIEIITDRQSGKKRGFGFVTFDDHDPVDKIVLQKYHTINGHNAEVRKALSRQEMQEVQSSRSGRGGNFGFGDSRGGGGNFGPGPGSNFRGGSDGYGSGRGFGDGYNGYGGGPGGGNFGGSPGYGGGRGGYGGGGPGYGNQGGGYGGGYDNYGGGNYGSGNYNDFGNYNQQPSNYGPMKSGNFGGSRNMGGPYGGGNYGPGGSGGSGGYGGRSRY
# [4] = target: T2, SW480 colon carcinoma cells lysate proteins (Homo sapiens, UniProt P10599); details: PreyGene TXN
# T2 sequence (P10599 1-105): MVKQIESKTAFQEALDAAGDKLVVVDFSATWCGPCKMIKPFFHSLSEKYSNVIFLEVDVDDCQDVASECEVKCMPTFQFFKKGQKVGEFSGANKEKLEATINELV
# [5] = target: SW480 colon carcinoma cells lysate proteins (Homo sapiens, UniProt P23284); details: PreyGene PPIB
# Sequence of SW480 colon carcinoma cells lysate proteins (Homo sapiens, UniProt P23284) (P23284 34-216): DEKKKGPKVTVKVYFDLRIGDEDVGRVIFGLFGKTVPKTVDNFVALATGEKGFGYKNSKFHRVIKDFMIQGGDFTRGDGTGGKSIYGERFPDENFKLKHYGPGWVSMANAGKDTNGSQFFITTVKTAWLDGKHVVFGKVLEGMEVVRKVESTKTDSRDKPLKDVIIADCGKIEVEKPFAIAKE
# [6] = target: T3, SW480 colon carcinoma cells lysate proteins (Homo sapiens, UniProt Q8NC51); details: PreyGene SERBP1; SW480 cells
# T3 sequence (Q8NC51 1-408): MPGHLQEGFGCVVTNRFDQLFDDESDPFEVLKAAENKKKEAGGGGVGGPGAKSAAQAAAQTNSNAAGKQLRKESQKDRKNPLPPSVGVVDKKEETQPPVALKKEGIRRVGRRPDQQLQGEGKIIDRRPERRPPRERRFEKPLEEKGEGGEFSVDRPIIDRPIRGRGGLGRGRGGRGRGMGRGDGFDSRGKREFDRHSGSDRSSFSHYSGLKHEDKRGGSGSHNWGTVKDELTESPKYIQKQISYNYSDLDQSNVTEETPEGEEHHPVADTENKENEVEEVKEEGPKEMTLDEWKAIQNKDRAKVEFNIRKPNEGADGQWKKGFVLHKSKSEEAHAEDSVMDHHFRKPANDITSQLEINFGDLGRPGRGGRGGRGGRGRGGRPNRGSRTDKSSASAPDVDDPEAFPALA
# [7] = target: SW480 colon carcinoma cells lysate proteins (Homo sapiens, UniProt Q16555); details: PreyGene DPYSL2
# [8] = target: T4, SW480 colon carcinoma cells lysate proteins (Homo sapiens, UniProt Q16543); details: PreyGene CDC37
# T4 sequence (Q16543 1-378): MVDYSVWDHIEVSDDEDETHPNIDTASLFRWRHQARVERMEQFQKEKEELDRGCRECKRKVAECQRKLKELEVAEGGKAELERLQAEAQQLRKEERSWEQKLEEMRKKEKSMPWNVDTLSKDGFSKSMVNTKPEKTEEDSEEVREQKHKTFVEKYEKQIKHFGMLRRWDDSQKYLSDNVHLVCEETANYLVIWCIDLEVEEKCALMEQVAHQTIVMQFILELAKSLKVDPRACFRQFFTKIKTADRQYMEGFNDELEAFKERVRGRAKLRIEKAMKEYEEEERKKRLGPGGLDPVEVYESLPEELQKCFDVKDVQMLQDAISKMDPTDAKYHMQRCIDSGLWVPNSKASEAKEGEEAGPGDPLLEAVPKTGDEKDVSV
# [9] = target: SW480 colon carcinoma cells lysate proteins (Homo sapiens, UniProt Q15056); details: PreyGene EIF4H
# [10] = target: SW480 colon carcinoma cells lysate proteins (Homo sapiens, UniProt Q92616); details: PreyGene GCN1L1; SW480 cells
# Sequence of SW480 colon carcinoma cells lysate proteins (Homo sapiens, UniProt Q92616) (Q92616 whole entry): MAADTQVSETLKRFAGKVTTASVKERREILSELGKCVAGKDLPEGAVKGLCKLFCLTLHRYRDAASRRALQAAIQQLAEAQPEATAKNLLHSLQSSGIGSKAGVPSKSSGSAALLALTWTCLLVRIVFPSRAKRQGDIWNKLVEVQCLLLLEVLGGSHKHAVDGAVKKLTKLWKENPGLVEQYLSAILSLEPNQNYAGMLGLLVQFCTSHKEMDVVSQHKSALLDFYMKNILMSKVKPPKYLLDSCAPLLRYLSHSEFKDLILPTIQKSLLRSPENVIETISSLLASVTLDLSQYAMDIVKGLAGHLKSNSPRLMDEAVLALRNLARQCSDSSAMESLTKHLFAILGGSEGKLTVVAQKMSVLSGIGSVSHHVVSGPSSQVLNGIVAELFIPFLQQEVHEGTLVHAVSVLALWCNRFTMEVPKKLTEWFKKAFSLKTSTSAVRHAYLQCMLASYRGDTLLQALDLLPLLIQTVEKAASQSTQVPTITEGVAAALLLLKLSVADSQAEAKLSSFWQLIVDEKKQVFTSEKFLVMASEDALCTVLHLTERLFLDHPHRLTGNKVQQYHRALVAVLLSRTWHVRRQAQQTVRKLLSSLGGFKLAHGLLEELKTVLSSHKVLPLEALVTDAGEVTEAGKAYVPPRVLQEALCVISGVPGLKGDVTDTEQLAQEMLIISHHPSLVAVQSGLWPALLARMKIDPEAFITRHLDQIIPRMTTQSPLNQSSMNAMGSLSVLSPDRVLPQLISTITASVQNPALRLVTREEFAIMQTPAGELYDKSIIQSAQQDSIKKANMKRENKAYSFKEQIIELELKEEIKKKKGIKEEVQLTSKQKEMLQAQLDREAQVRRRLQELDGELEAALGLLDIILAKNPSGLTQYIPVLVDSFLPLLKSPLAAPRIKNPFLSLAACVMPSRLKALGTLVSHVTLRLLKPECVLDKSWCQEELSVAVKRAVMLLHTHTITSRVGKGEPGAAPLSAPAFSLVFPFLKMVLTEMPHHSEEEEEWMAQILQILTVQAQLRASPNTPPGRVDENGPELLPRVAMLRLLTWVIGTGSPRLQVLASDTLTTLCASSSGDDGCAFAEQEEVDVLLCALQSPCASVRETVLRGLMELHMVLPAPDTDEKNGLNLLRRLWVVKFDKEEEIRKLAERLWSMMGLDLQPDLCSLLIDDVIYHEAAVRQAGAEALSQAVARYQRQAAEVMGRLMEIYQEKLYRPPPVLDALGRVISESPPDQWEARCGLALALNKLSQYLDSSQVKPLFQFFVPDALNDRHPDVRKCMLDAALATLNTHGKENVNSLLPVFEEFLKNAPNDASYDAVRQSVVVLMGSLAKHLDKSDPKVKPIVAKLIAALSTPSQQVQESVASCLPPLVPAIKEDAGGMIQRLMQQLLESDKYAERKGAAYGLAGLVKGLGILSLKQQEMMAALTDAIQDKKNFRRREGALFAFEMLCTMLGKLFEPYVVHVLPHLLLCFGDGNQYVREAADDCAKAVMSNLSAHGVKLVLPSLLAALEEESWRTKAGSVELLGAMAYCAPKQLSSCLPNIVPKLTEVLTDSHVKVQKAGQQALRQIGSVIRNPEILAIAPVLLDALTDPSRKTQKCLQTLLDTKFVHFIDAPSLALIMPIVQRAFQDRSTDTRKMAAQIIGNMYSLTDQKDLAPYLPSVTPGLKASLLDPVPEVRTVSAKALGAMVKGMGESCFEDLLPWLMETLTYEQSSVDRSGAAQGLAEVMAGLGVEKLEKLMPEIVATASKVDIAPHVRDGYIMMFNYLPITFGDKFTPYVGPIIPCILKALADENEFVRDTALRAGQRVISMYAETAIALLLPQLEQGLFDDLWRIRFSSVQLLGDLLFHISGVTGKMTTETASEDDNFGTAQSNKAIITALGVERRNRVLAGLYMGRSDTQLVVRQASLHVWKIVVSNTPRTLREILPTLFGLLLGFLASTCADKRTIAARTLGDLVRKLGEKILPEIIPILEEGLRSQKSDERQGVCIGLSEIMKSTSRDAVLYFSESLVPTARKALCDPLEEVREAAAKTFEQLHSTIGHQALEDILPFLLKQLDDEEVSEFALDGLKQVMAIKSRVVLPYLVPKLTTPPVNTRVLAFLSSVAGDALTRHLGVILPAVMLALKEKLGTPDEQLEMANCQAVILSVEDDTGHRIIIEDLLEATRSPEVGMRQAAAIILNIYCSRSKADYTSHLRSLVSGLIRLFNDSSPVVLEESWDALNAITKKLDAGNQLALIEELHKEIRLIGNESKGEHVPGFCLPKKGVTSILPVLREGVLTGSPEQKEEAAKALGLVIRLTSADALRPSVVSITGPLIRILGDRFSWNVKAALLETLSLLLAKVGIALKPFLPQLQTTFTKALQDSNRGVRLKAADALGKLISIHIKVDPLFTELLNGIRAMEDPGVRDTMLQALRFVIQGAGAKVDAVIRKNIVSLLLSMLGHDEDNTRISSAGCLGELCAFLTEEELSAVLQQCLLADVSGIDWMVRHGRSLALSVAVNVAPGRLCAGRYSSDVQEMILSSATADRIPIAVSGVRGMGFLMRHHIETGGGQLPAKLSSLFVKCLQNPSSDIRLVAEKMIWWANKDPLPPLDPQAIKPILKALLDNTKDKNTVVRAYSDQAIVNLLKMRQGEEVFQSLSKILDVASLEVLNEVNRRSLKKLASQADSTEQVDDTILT
structure (smiles),measurement,setting,value
C[C@H](Oc1cc(-c2cnn(C3CCNCC3)c2)cnc1N)c1c(Cl)ccc(F)c1Cl [(5)-crizotinib],AvgP,[1],0
same,SC.Exp. 1-1,[1],23
same,SC.Exp. 1-2,[1],21
same,SC.Exp. 2-1,[1],8
same,SC.Exp. 2-2,[1],8
same,SC.Exp. Sum,[1],60
same,AvgP,[2],0.191
same,SC.Exp. 1-1,[2],0
same,SC.Exp. 1-2,[2],2
same,SC.Exp. 2-1,[2],0
same,SC.Exp. 2-2,[2],0
same,Sum (SC.Exp.),[2],2
same,AvgP,[3],0.2944
same,SC.Exp. 1-1,[3],2
same,SC.Exp. 1-2,[3],2
same,SC.Exp. 2-1,[3],0
same,SC.Exp. 2-2,[3],2
same,Sum (SC.Exp.),[3],6
same,AvgP,[4],0.4587
same,SC.Exp. 1-1,[4],4
same,SC.Exp. 1-2,[4],5
same,SC.Exp. 2-1,[4],2
same,SC.Exp. 2-2,[4],1
same,Sum (SC.Exp.),[4],12
same,AvgP,[5],0.381
same,SC.Exp. 1-1,[5],2
same,SC.Exp. 1-2,[5],2
same,SC.Exp. 2-1,[5],0
same,SC.Exp. 2-2,[5],0
same,Sum (SC.Exp.),[5],4
same,AvgP,[6],0
same,SC.Exp. 1-1,[6],8
same,SC.Exp. 1-2,[6],10
same,SC.Exp. 2-1,[6],5
same,SC.Exp. 2-2,[6],6
same,SC.Exp. Sum,[6],29
same,AvgP,[7],0.3678
same,SC.Exp. 1-1,[7],6
same,SC.Exp. 1-2,[7],4
same,SC.Exp. 2-1,[7],0
same,SC.Exp. 2-2,[7],0
same,Sum (SC.Exp.),[7],10
same,AvgP,[8],0.4343
same,SC.Exp. 1-1,[8],3
same,SC.Exp. 1-2,[8],3
same,SC.Exp. 2-1,[8],0
same,SC.Exp. 2-2,[8],0
same,Sum (SC.Exp.),[8],6
same,AvgP,[9],0.4095
same,SC.Exp. 1-1,[9],3
same,SC.Exp. 1-2,[9],2
same,SC.Exp. 2-1,[9],0
same,SC.Exp. 2-2,[9],0
same,Sum (SC.Exp.),[9],5
same,AvgP,[10],0
same,SC.Exp. 1-1,[10],37
same,SC.Exp. 1-2,[10],34
same,SC.Exp. 2-1,[10],37
same,SC.Exp. 2-2,[10],37
same,SC.Exp. Sum,[10],145
